Laboratory results from US9513294B2, “Megastokes amino-triazolyl-BODIPY compounds and applications to live neuron staining and human serum albumin FA1 drug site probing” (National University of Singapore, priority 2012, dated 2016).

Tests used:
[1] = Quantum yield measurements versus Acridine Yellow in EtOH; assay type: physicochemical; conditions: for φ (quantum yield): excitation 460 nm; for φ (%): quantum yield
Method in brief: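 Emission areas integrated over 510–700 nm were compared with Acridine Yellow in ethanol (Φ=0.47), all excited at 460 nm. The comparative equation was normalized to excitation-wavelength absorbance and solvent refractive index.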

[2] = Absorbance and fluorescence emission spectra (SpectraMax M2); assay type: physicochemical; conditions: for λmax Absorp. (nm) / λmax Emission (nm): MKCA compound library; for λmax Absorp. (nm) / λmax Abs. (nm): absorbance maximum; for λmax Emission (nm) / λmax Em. (nm): fluorescence emission maximum; for λmax Abs. (nm) / λmax Em. (nm): MKAC compound library
Method in brief: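 Spectroscopic data, including quantum yields, were recorded with a SpectraMax M2 instrument and analysed in GraphPrism.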

φ (%) ([1]; MKCA compound library)	λmax Absorp. (nm) [2] [nm]	λmax Emission (nm) [2] [nm]	φ (quantum yield) ([1]; MK library, Table 5) [%]	λmax Absorp. ([2]; MK library, Table 5) [nm]	λmax Emission ([2]; MK library, Table 5) [nm]	SMILES	also measured
1.94	463	574				O=C(CCl)Nc1ccc(C2=C3C=CC(N4CCCC4)=[N+]3[B-](F)(F)n3c2ccc3-n2cc(C3CCCC3)nn2)cc1 [MKCA215-5]	
2.64	469	587				CC1CN(C2=[N+]3C(=C(c4ccc(NC(=O)CCl)cc4)c4ccc(-n5cc(CO)nn5)n4[B-]3(F)F)C=C2)CC(C)O1 (centres unmarked) [MKCA20-70]	
3.42	462	569				CCCCCC(O)c1cn(-c2ccc3n2[B-](F)(F)[N+]2=C(N4CCCC4)C=CC2=C3c2ccc(NC(=O)CCl)cc2)nn1 (centres unmarked) [MKCA215-69]	
28.94	465	562				CCCc1cn(-c2ccc3n2[B-](F)(F)[N+]2=C(NCc4ccccc4C)C=CC2=C3c2ccc(NC(=O)CCl)cc2)nn1 [MKCA101-48]	
42.58	466	563				O=C(CCl)Nc1ccc(C2=C3C=CC(NCc4cc(F)cc(F)c4)=[N+]3[B-](F)(F)n3c2ccc3-n2cc(CCc3ccccc3)nn2)cc1 [MKCA412-19]	
36.09	466	561				CCCc1cn(-c2ccc3n2[B-](F)(F)[N+]2=C(NCc4cc(F)cc(F)c4)C=CC2=C3c2ccc(NC(=O)CCl)cc2)nn1 [MKCA412-48]	

The remaining lines, values behind:

SMILES	φ (%) ([1]; MKCA compound library)	λmax Absorp. (nm) [2] [nm]	λmax Emission (nm) [2] [nm]	φ (quantum yield) ([1]; MK library, Table 5) [%]	λmax Absorp. ([2]; MK library, Table 5) [nm]	λmax Emission ([2]; MK library, Table 5) [nm]	also measured
CCCCCCc1cn(-c2ccc3n2[B-](F)(F)[N+]2=C(N4CCCCC4)C=CC2=C3c2ccc(NC(=O)CCl)cc2)nn1 [BDCCA-47]							φ (quantum yield) ([1]; BDCCA library, Table 4): 1.8%; λmax Absorp. ([2]; BDCCA library, Table 4): 466 nm; λmax Emission ([2]; BDCCA library, Table 4): 560 nm
Nc1ccc(C2=C3C=CC(NCc4cc(F)cc(F)c4)=[N+]3[B-](F)(F)n3c2ccc3-n2cc(CC3CCCCC3)nn2)cc1 [MK412-8]				0.56	476	563	
CC(C)Cc1cn(-c2ccc3n2[B-](F)(F)[N+]2=C(NCc4cc(F)cc(F)c4)C=CC2=C3c2ccc(N)cc2)nn1 [MK412-43]				0.86	476	564	
CCCCCCCCCCc1cn(-c2ccc3n2[B-](F)(F)[N+]2=C(N4CCCCC4)C=CC2=C3c2ccc(NC(=O)CCl)cc2)nn1 [BDCCA-49]							φ (quantum yield) ([1]; BDCCA library, Table 4): 1.2%; λmax Absorp. ([2]; BDCCA library, Table 4): 466 nm; λmax Emission ([2]; BDCCA library, Table 4): 575 nm
Cc1ccccc1CNC1=[N+]2C(=C(c3ccc(N)cc3)c3ccc(-n4cc(CC5CCCCC5)nn4)n3[B-]2(F)F)C=C1 [MK101-8]				0.64	475	564	absorbance λmax ([2]; FIG. 2 normalized spectra): 474 nm; emission λmax ([2]; FIG. 2 normalized spectra): 563 nm
COc1cccc(-c2cn(-c3ccc4n3[B-](F)(F)[N+]3=C(N5CCCCC5)C=CC3=C4c3ccc(N)cc3)nn2)c1 [BDC-27]							φ (quantum yield) ([1]; BDC library, Table 2): 0.17%; λmax Absorp. ([2]; BDC library, Table 2): 472 nm; λmax Emission ([2]; BDC library, Table 2): 565 nm
CC(=O)Nc1ccc(C2=C3C=CC(N4CCCCC4)=[N+]3[B-](F)(F)n3c2ccc3-n2cc(C(C)(C)C)nn2)cc1 [BDCAC-1]							φ (quantum yield) ([1]; BDCAC library, Table 3): 1.5%; λmax Absorp. ([2]; BDCAC library, Table 3): 469 nm; λmax Emission ([2]; BDCAC library, Table 3): 580 nm
CN(Cc1ccccc1)Cc1cn(-c2ccc3n2[B-](F)(F)[N+]2=C(NCc4cc(F)cc(F)c4)C=CC2=C3c2ccc(N)cc2)nn1 [MK412-18]				1.02	473	563	
CN(Cc1ccccc1)C1=[N+]2C(=C(c3ccc(N)cc3)c3ccc(-n4cc(CC5CCCCC5)nn4)n3[B-]2(F)F)C=C1 [MK195-8]				0.36	476	579	
COc1ccc(OC)c(CNC2=[N+]3C(=C(c4ccc(N)cc4)c4ccc(-n5cc(C6CCCC6)nn5)n4[B-]3(F)F)C=C2)c1 [MK181-5]				0.43	475	563	
CCCC(C)c1cn(-c2ccc3n2[B-](F)(F)[N+]2=C(NCc4cc(OC)ccc4OC)C=CC2=C3c2ccc(NC(C)=O)cc2)nn1 (racemic) [MKAC181-3]							φ (%) ([1]; MKAC compound library): 15.41%; λmax Abs. (nm) [2]: 465 nm; λmax Em. (nm) [2]: 562 nm
CCOc1ccccc1CNC1=[N+]2C(=C(c3ccc(N)cc3)c3ccc(-n4cc(CN(C)Cc5ccccc5)nn4)n3[B-]2(F)F)C=C1 [MK103-18]				1.19	473	565	
CCCc1cn(-c2ccc3n2[B-](F)(F)[N+]2=C(N4CCCCC4)C=CC2=C3c2ccc(NC(C)=O)cc2)nn1 [BDCAC-48]							φ (quantum yield) ([1]; BDCAC library, Table 3): 1.6%; λmax Absorp. ([2]; BDCAC library, Table 3): 467 nm; λmax Emission ([2]; BDCAC library, Table 3): 576 nm
CCOc1ccccc1CNC1=[N+]2C(=C(c3ccc(NC(C)=O)cc3)c3ccc(-n4cc(C5CCCC5)nn4)n3[B-]2(F)F)C=C1 [MKAC103-5]							φ (%) ([1]; MKAC compound library): 18.11%; λmax Abs. (nm) [2]: 465 nm; λmax Em. (nm) [2]: 562 nm
